{"source": "patent US8426447B2", "about": "“Spiro-tricyclic ring compounds as beta-secretase modulators and methods of use” (Amgen Inc., priority 2008, dated 2013)", "key": {"[1]": {"target": "T1, BACE1 (Homo sapiens, UniProt P56817)", "T1 sequence (P56817 46-501, species assumed)": "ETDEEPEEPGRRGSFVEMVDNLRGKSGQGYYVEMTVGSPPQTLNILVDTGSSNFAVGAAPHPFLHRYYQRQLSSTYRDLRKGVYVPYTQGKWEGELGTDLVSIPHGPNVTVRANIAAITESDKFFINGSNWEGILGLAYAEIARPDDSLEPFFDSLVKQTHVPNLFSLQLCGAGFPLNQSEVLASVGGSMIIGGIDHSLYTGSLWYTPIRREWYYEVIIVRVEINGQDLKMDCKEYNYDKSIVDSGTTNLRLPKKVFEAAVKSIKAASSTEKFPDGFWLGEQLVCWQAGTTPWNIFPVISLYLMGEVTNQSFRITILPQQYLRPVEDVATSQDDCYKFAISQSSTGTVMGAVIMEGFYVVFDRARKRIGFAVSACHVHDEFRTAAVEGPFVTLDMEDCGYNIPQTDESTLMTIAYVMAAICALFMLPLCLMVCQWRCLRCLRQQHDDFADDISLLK", "assay": "In Vitro BACE Cell-based Assay (HEK cell assay): Aβ40 in conditioned medium of cells stably expressing Amyloid Precursor Protein, sandwich ELISA", "how_it_was_run": "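First, APP-stable cells grow 24 h at 37° C., 5% CO2. Next, test compounds are added for 24 h (10 doses, 0.1% DMSO). Finally, medium Aβ40 is determined by pAb40/6E10 sandwich ELISA with Europium TRF, and IC50 is calculated.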"}, "[2]": {"target": "T1, BACE1", "assay": "In Vitro Enzymatic BACE FRET (Fluorescence Resonance Energy Transfer) Assay", "assay_type": "biochemical", "how_it_was_run": "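Acetate buffer at pH 4.2 with 10% DMSO and 100 uM genapol hosts the enzymatic reaction, initiated by 50 nM FRET substrate and allowed to proceed one hour. Tris quench to neutral pH precedes the fluorescence measurement.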"}, "[3]": {"conditions": "Table III, IC50's in uM ranges, read-out: HEK cell assay"}, "[4]": {"conditions": "Table III, IC50's in uM ranges, read-out: BACE1 FRET assay"}, "[5]": {"conditions": "HEK cells, read-out: HEK cell assay"}, "[6]": {"conditions": "HEK cell-based assay, Aβ40 in conditioned medium, IC50 class symbols, read-out: HEK cell assay"}, "[7]": {"conditions": "in vitro BACE FRET enzyme assay, IC50 class symbols, read-out: BACE1 FRET assay"}, "[8]": {"conditions": "Table IV, class symbols, read-out: HEK cell assay"}, "[9]": {"conditions": "Table IV, class symbols, read-out: BACE1 FRET assay"}}}
{"smiles": "Cc1n[nH]cc1-c1ccc2c(c1)[C@@]1(COC(N)=N1)c1cc(OCC(C)(C)C)ccc1O2", "note": "[Example 129, (S)-2′-(3-methyl-1H-pyrazol-4-yl)-7′-(neopentyloxy)-5H-spiro[oxazole-4,9′-xanthen]-2-amine 2,2,2-trifluoroacetate]", "values": [{"measurement": "IC50", "setting": "[1]; [3]", "result": "> 5", "unit": "µM"}, {"measurement": "IC50", "setting": "[2]; [4]", "result": "0.1 to 1", "unit": "µM"}]}
{"smiles": "CCCOc1cc2c(cc1F)Oc1ccc(-c3cncnc3)cc1[C@]21COC(N)=N1", "note": "[compound 941]", "values": [{"measurement": "IC50", "setting": "[1]; read-out: HEK cell assay", "result": "1 to 5", "unit": "µM"}, {"measurement": "IC50", "setting": "[2]; read-out: BACE1 FRET assay", "result": "0.1 to 1", "unit": "µM"}]}
{"smiles": "CC(C)(O)COc1ccc2c(c1)[C@]1(COC(N)=N1)c1cc(-c3cncc(F)c3)ccc1O2", "note": "[compound 224]", "values": [{"measurement": "IC50", "setting": "[1]; [3]", "result": "< 0.1", "unit": "µM"}, {"measurement": "IC50", "setting": "[2]; [4]", "result": "< 0.1", "unit": "µM"}]}
{"smiles": "NC1=N[C@@]2(CO1)c1cc(-c3cncnc3)ccc1Oc1ccc(N3CC(F)(F)C3)cc12", "note": "[compound 508]", "values": [{"measurement": "IC50", "setting": "[1]; [5]", "result": "< 0.1", "unit": "µM"}, {"measurement": "IC50", "setting": "[2]; read-out: BACE1 FRET assay", "result": "< 0.1", "unit": "µM"}]}
{"smiles": "CC1(C)C=C(c2cc3c(cc2F)Oc2ccc(-c4cncnc4)cc2[C@@]32COC(N)=N2)CCO1", "note": "[compound 502]", "values": [{"measurement": "IC50", "setting": "[1]; [5]", "result": "< 0.1", "unit": "µM"}, {"measurement": "IC50", "setting": "[2]; read-out: BACE1 FRET assay", "result": "< 0.1", "unit": "µM"}]}
{"smiles": "Cc1cncc(-c2ccc3c(c2)[C@@]2(COC(N)=N2)c2cc(N4CCOCC4)ncc2O3)c1", "note": "[compound 325]", "values": [{"measurement": "IC50", "setting": "[1]; [6]", "result": "< 0.1", "unit": "µM"}, {"measurement": "IC50", "setting": "[2]; [7]", "result": "< 0.1", "unit": "µM"}]}
{"smiles": "NC1=N[C@@]2(CO1)c1cc(-c3cccnc3F)ccc1Oc1cnc(-c3ccccn3)cc12", "note": "[compound 516]", "values": [{"measurement": "IC50", "setting": "[1]; HEK cell assay (uM), HEK cells", "result": "< 0.1", "unit": "µM"}, {"measurement": "IC50", "setting": "[2]; BACE1 FRET assay (uM)", "result": "< 0.1", "unit": "µM"}]}
{"smiles": "NC1=N[C@@]2(CO1)c1cc(-c3cccnc3)ccc1Oc1cnc(C(=O)CCCCO)cc12", "note": "[compound 612]", "values": [{"measurement": "IC50", "setting": "[1]; [8]", "result": "0.1 to 1", "unit": "µM"}, {"measurement": "IC50", "setting": "[2]; [9]", "result": "< 0.1", "unit": "µM"}]}
{"smiles": "CC(C)(C)COc1ccc2c(c1)[C@@]1(COC(N)=N1)c1cc(-c3cncnc3)cc(F)c1O2", "note": "[155a]", "values": [{"measurement": "IC50", "setting": "[1]; [3]", "result": "0.1 to 1", "unit": "µM"}, {"measurement": "IC50", "setting": "[2]; [4]", "result": "< 0.1", "unit": "µM"}]}
{"smiles": "CC(C)(C)COc1ccc2c(c1)[C@]1(COC(N)=N1)c1cc(-c3ccc(S(C)(=O)=O)cc3)ccc1O2", "note": "[compound 910]", "values": [{"measurement": "IC50", "setting": "[1]; [8]", "result": "1 to 5", "unit": "µM"}, {"measurement": "IC50", "setting": "[2]; [9]", "result": "1 to 5", "unit": "µM"}]}
{"smiles": "CC(C)(C)COc1ccc2c(c1)[C@@]1(COC(N)=N1)c1cc(-c3ccc(F)nc3)cnc1O2", "note": "[compound 868]", "values": [{"measurement": "IC50", "setting": "[1]; [8]", "result": "< 0.1", "unit": "µM"}, {"measurement": "IC50", "setting": "[2]; [9]", "result": "< 0.1", "unit": "µM"}]}
{"smiles": "Cc1nc(-c2ccc3c(c2)[C@]2(COC(N)=N2)c2cc(-c4cccnc4)ccc2O3)cs1", "note": "[compound 679]", "values": [{"measurement": "IC50", "setting": "[1]; read-out: HEK cell assay", "result": "< 0.1", "unit": "µM"}, {"measurement": "IC50", "setting": "[2]; read-out: BACE1 FRET assay", "result": "< 0.1", "unit": "µM"}]}
{"smiles": "CC1(C)CN(c2cc3c(cn2)Oc2ccc(-c4cccnc4F)cc2[C@@]32COC(N)=N2)CCO1", "note": "[compound 489]", "values": [{"measurement": "IC50", "setting": "[1]; HEK cell assay (uM), HEK cells", "result": "< 0.1", "unit": "µM"}, {"measurement": "IC50", "setting": "[2]; BACE1 FRET assay (uM)", "result": "< 0.1", "unit": "µM"}]}
{"smiles": "CC1(COc2cnc3c(c2)[C@]2(COC(N)=N2)c2cc(-c4ccccc4)ccc2O3)COC1", "note": "[compound 459]", "values": [{"measurement": "IC50", "setting": "[1]; [5]", "result": "< 0.1", "unit": "µM"}, {"measurement": "IC50", "setting": "[2]; read-out: BACE1 FRET assay", "result": "< 0.1", "unit": "µM"}]}
{"smiles": "CC(C)OC1CN(c2ccc3c(c2)[C@]2(COC(N)=N2)c2cc(-c4cccnc4)ccc2O3)C1", "note": "[compound 384]", "values": [{"measurement": "IC50", "setting": "[1]; [6]", "result": "< 0.1", "unit": "µM"}, {"measurement": "IC50", "setting": "[2]; [7]", "result": "< 0.1", "unit": "µM"}]}
{"smiles": "CN1CCN(c2cc3c(cn2)Oc2ccc(-c4cccnc4)cc2[C@@]32COC(N)=N2)CC1", "note": "[compound 444]", "values": [{"measurement": "IC50", "setting": "[1]; [5]", "result": "< 0.1", "unit": "µM"}, {"measurement": "IC50", "setting": "[2]; read-out: BACE1 FRET assay", "result": "< 0.1", "unit": "µM"}]}
{"smiles": "COC(=O)/C=C/c1ccc2c(c1)[C@@]1(COC(N)=N1)c1cc(Br)ccc1O2", "note": "[compound 950]", "values": [{"measurement": "IC50", "setting": "[1]; read-out: HEK cell assay", "result": "> 5", "unit": "µM"}, {"measurement": "IC50", "setting": "[2]; read-out: BACE1 FRET assay", "result": "1 to 5", "unit": "µM"}]}
{"smiles": "Cc1ccc(-n2ccc3c(c2=O)[C@@]2(COC(N)=N2)c2cc(-c4cccnc4)ccc2O3)cc1", "note": "[compound 566]", "values": [{"measurement": "IC50", "setting": "[1]; [8]", "result": "0.1 to 1", "unit": "µM"}, {"measurement": "IC50", "setting": "[2]; [9]", "result": "0.1 to 1", "unit": "µM"}]}
{"smiles": "COCC(=O)Nc1ccc2c(c1)[C@@]1(COC(N)=N1)c1cc(C#CC(C)(C)C)ccc1O2", "note": "[compound 324]", "values": [{"measurement": "IC50", "setting": "[1]; [6]", "result": "0.1 to 1", "unit": "µM"}, {"measurement": "IC50", "setting": "[2]; [7]", "result": "< 0.1", "unit": "µM"}]}
{"smiles": "Cc1cscc1-c1ccc2c(c1)[C@@]1(COC(N)=N1)c1cc(OCC(C)(C)C)ccc1O2", "note": "[compound 738]", "values": [{"measurement": "IC50", "setting": "[1]; read-out: HEK cell assay", "result": "1 to 5", "unit": "µM"}, {"measurement": "IC50", "setting": "[2]; read-out: BACE1 FRET assay", "result": "0.1 to 1", "unit": "µM"}]}
{"smiles": "CC(C)(C)/C=C/c1cc2c(cn1)Oc1ccc(-c3cccnc3)cc1[C@@]21COC(N)=N1", "note": "[compound 397]", "values": [{"measurement": "IC50", "setting": "[1]; [6]", "result": "< 0.1", "unit": "µM"}, {"measurement": "IC50", "setting": "[2]; [7]", "result": "< 0.1", "unit": "µM"}]}
{"smiles": "COC(C)(C)C#Cc1ccc2c(c1)[C@@]1(COC(N)=N1)c1cc(-c3cccnc3)cnc1O2", "note": "[compound 179]", "values": [{"measurement": "IC50", "setting": "[1]; [3]", "result": "0.1 to 1", "unit": "µM"}, {"measurement": "IC50", "setting": "[2]; [4]", "result": "< 0.1", "unit": "µM"}]}
{"smiles": "N#Cc1ccccc1-c1ccc2c(c1)[C@]1(COC(N)=N1)c1cc(-c3cccnc3)ccc1O2", "note": "[compound 962]", "values": [{"measurement": "IC50", "setting": "[1]; read-out: HEK cell assay", "result": "0.1 to 1", "unit": "µM"}, {"measurement": "IC50", "setting": "[2]; read-out: BACE1 FRET assay", "result": "< 0.1", "unit": "µM"}]}
{"smiles": "NC1=N[C@]2(CO1)c1cc(-c3cccc(F)c3)ccc1Oc1ncc(C3=CCOCC3)cc12", "note": "[compound 690]", "values": [{"measurement": "IC50", "setting": "[1]; read-out: HEK cell assay", "result": "> 5", "unit": "µM"}, {"measurement": "IC50", "setting": "[2]; read-out: BACE1 FRET assay", "result": "1 to 5", "unit": "µM"}]}
{"smiles": "CC(=O)c1ccccc1-c1ccc2c(c1)[C@@]1(COC(N)=N1)c1cc(OCC(C)(C)C)ccc1O2", "note": "[compound 974]", "values": [{"measurement": "IC50", "setting": "[1]; read-out: HEK cell assay", "result": "1 to 5", "unit": "µM"}, {"measurement": "IC50", "setting": "[2]; read-out: BACE1 FRET assay", "result": "0.1 to 1", "unit": "µM"}]}
